Reference: patent publication US20080300243A1, “Amide Derivatives as Ion-Channel Ligands and Pharmaceutical Compositions and Methods of Using the Same” (priority 2005, published 2008)

How the values were obtained:
VR1 [1] = target: T1, VR1 (Homo sapiens, UniProt Q8NER1); test: Calcium uptake assay, low pH (proton) stimulus; type: cell-based; design: expressed in transfected cells; host or cells: T-REx HEK 293 (Invitrogen), pcDNA5/TO vector; conditions: HEK293; 0.3 μM compound; low pH agonist; HEK 293 cells expressing hVR1; read-out: Low pH % Inhib. @ 0.3 μM
Target sequence in this assay (Q8NER1 whole entry): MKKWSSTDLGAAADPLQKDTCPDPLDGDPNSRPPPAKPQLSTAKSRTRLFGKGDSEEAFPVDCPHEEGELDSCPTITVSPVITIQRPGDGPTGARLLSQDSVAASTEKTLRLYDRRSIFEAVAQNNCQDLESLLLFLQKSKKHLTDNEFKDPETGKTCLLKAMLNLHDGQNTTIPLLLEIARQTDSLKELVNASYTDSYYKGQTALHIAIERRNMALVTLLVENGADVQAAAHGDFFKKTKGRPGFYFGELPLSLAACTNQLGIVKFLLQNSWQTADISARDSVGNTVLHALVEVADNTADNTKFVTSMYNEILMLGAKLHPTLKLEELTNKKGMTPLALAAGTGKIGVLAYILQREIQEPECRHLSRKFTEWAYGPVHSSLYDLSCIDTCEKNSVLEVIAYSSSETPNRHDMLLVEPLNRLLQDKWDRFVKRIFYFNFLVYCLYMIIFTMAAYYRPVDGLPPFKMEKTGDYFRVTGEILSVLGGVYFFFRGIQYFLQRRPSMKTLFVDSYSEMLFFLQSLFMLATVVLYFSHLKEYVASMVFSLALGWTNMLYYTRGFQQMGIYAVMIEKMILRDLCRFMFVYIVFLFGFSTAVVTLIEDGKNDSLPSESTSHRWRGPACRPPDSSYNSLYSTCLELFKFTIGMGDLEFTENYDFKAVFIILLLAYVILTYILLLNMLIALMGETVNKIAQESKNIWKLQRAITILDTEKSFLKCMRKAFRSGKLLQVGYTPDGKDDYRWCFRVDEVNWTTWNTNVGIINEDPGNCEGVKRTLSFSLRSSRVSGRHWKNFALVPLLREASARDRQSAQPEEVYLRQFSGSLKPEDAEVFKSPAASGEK

[2] = Half-life in human liver microsomes (HLM); type: in vitro ADME; conditions: human, human liver microsomes (HLM, HL101), pH 7.4; 1 μM compound, 0.78 mg/mL HLM, 37° C., NADPH
Method: Test compounds (1 μM) were incubated with 3.3 mM MgCl2 and 0.78 mg/mL HLM (HL101) in 100 mM potassium phosphate buffer (pH 7.4) at 37° C. on the 96-deep well plate. The reaction mixture was split into two groups, a non-P450 and a P450 group. NADPH was only added to the reaction mixture of the P450 group. An aliquot of samples of P450 group was collected at 0, 10, 30, and 60 min time point, where 0 min time point indicated the time when NADPH was added into the reaction mixture of P450 group. An aliquot of samples of non-P450 group was collected at −10 and 65 min time point. Collected aliquots were extracted with acetonitrile solution containing an internal standard. The precipitated protein was spun down in centrifuge (2000 rpm, 15 min). The compound concentration in supernatant was measured by LC/MS/MS system.
The half-life value was obtained by plotting the natural logarithm of the peak area ratio of compounds/internal standard versus time. The slope of the line of best fit through the points yields the rate of metabolism (k). This was converted to a half-life value using following equations:
Exemplary compounds of the invention were tested (1 μM), and were incubated with 3.3 mM MgCl2 and 0.78 mg/mL HLM (HL101) in 100 mM potassium phosphate buffer (pH 7.4) at 37° C. on the 96-deep well plate. The reaction mixture was split into two groups, a non-P450 and a P450 group. NADPH was only added to the reaction mixture of the P450 group. An aliquot of samples of the P450 group was collected at 0, 10, 30, and 60 minute time points, where the 0 minute time point indicated the time when NADPH was added into the reaction mixture of the P450 group. An aliquot of samples of the non-P450 group was collected at −10 and 65 minute time points. Collected aliquots were extracted with an acetonitrile solution containing an internal standard. The precipitated protein was spun down in a centrifuge (2000 rpm, 15 rain). The compound concentration in supernatant was measured by LC/MS/MS system. The half-life value (T1/2) was obtained by plotting the natural logarithm of the peak area ratio of compounds/internal standard versus time. The slope of the line of best fit through the points yields the rate of metabolism (k). This was converted to a half-life value using following equations: Half-life=ln 2/k.

VR1 receptor = target: T2, VR1 receptor (Rattus norvegicus, UniProt O35433); test: Calcium imaging assay in DRG neurons, capsaicin stimulus; type: cell-based; conditions: for inhibition of the Capsaicin induced intracellular calcium response (FIG. 1): 3 nM compound, DRG neurons
T2 construct: endogenous in cells; host or cells: dorsal root ganglion (DRG) neurons
Method: Therefore the functional activity of compounds at the VR1 receptor may be determined by measuring changes in intracellular calcium levels in neurons such as the dorsal root ganglion. […] Prior to assay, cells were loaded with 5 μg/ml Fura2 in normal saline solution at 37° C. for 40 minutes. Cells were then washed with normal saline to remove dye before commencement of the experiment. The plated neurons were transferred into a chamber on the stage of a Nikon eclipse TE300 microscope after which neurons were allowed to attain a stable fluorescence for about 10 minutes before beginning the experiment. The assay consists of two stages, a pretreatment phase followed by a treatment phase. First, a solution of the test compound was added from a multivalve perfusion system to the cells for 1 minute (pretreatment). […] Fura2 was excited at 340 and 380 nm to indicate relative calcium ion concentration. Changes in wavelength measurements were made throughout the course of the experiment. The fluorescence ratio was calculated by dividing fluorescence measured at 340 nm by that at 380 nm. Data were collected using Intelligent Imaging's Slidebook software.

VR1 [3] = target: T1, VR1; test: Acid stimulation assay (FDSS 6000); type: cell-based; design: host or cells: unspecified cell suspension; conditions: final assay buffer pH5.8, 15 min pre-incubation
Method: The Acid-induced changes in the intracellular calcium concentration were monitored using FDSS 6000 (Hamamatsu Photonics, Japan), a fluorometric imaging system. The cell suspension in resting buffer (HBSS supplemented with […], pH 7.4) was pre-incubated with varying concentrations of the test compounds or resting buffer (buffer control) for 15 minutes at room temperature under dark conditions. The cells were automatically added the stimulating solution (HBSS supplemented with MES, final assay buffer pH5.8) by the FDSS 6000.
Target sequence in this assay (Q8NER1 whole entry, species assumed): as the sequence (Q8NER1 whole entry) above

T2 sequence (O35433 whole entry): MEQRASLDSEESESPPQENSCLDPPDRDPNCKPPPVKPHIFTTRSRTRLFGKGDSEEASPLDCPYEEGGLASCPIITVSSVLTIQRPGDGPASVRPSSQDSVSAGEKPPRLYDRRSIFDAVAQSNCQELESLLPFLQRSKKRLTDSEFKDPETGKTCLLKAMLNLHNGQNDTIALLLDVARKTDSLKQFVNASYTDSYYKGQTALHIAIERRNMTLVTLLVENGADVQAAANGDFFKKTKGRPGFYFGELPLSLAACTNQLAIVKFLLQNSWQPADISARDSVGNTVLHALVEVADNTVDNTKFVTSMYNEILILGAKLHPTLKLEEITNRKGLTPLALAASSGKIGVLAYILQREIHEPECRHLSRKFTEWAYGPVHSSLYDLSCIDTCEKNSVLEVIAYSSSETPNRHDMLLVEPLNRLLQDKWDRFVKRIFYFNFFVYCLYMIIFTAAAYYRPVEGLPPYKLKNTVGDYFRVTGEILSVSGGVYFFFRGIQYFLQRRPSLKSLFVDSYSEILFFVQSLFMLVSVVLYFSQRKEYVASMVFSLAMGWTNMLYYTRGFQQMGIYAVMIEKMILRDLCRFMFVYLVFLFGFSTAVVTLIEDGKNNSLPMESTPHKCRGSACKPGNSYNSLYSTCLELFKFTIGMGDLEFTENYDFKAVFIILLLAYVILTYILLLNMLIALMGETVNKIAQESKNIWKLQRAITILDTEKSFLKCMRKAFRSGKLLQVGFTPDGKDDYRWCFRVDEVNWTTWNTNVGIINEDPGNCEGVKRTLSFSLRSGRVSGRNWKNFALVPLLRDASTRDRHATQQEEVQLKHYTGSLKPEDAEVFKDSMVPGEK

- inhibition at 0.3 µM (VR1 [1]): 110%
- half-life at 1 μM [2]: 3.26 h
- inhibition of the Capsaicin induced intracellular calcium response (FIG. 1) (VR1 receptor): significant inhibition
- inhibition of the Capsaicin induced intracellular calcium response (FIG. 1) (VR1 receptor; listed as compound 225): reduced
- inhibition at 0.003 µM (VR1 receptor; DRG neuron, read-out: % inhibition of capsaicin induced calcium influx): > 75%
- IC50 (VR1 [3]): 0.9 nM
SMILES: Cc1cc(/C=C/C(F)(F)F)ccc1C(=O)Nc1ccc2sc(CO)nc2c1 [Compound 225]
